By pEC50 is commonly meant the negative decadic logarithm of the EC50, by convention in mol/L.

Molecules are shown by their SMILES. pEC50: −log10 of the molar value.

The target of the test is Beta-3 adrenergic receptor (Homo sapiens, UniProt P13945). The test is described as follows: In vitro effective concentration against beta-3 adrenergic receptor.
Beta-3 adrenergic receptor, sequence (P13945 whole entry): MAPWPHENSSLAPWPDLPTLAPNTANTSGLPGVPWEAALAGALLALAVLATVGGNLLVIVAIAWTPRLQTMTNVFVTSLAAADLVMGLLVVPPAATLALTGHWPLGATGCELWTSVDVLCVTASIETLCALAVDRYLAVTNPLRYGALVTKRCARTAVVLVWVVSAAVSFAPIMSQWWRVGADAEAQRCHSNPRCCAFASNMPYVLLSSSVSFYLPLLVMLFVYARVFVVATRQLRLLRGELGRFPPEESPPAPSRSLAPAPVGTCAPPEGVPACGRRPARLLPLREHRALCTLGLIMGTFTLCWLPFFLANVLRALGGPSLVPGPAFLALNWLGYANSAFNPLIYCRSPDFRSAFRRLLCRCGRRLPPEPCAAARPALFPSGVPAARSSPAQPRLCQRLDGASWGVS

The compound `CCCCCCn1c(O)cn(-c2ccc(S(=O)(=O)Nc3ccc(CCNC[C@H](O)c4cccnc4)cc3)cc2)c1=O` [4-(3-Hexyl-2,4-dioxo-imidazolidin-1-yl)-N-{4-[2-(2-hydroxy-2-pyridin-3-yl-ethylamino)-ethyl]-phenyl}-benzenesulfonamide] had a negative-log EC50 (pEC50) of 7.11.

Take `CCCCCCn1cc(O)n(-c2ccc(S(=O)(=O)Nc3ccc(CCNC[C@H](O)c4cccnc4)cc3)cc2)c1=O` [4-(3-Hexyl-2,5-dioxo-imidazolidin-1-yl)-N-{4-[2-(2-hydroxy-2-pyridin-3-yl-ethylamino)-ethyl]-phenyl}-benzenesulfonamide]: the pEC50 was 8.44.

With `CCCCCCCCn1cc(O)n(-c2ccc(S(=O)(=O)Nc3ccc(CCNC[C@H](O)c4cccnc4)cc3)cc2)c1=O` [N-{4-[2-((R)-2-Hydroxy-2-pyridin-3-yl-ethylamino)-ethyl]-phenyl}-4-(3-octyl-2,5-dioxo-imidazolidin-1-yl)-benzenesulfonamide], the pEC50 was 7.20.

The values are drawn from BindingDB's records for doi:10.1016/s0960-894x(03)00491-8 (Central Drug Research Institute, 2003).
